Test results as given in patent US8431593B2, “Heteroaryl amide derivatives” (H. Lundbeck A/S, priority 2006, dated 2013).
Like-named read-outs stand apart in the source and are kept apart here.

Biological target: T1, P2X7 receptor (Homo sapiens, UniProt Q99572)
T1 construct: host or cells: SH-SY5Y
T1 sequence (Q99572 1-595): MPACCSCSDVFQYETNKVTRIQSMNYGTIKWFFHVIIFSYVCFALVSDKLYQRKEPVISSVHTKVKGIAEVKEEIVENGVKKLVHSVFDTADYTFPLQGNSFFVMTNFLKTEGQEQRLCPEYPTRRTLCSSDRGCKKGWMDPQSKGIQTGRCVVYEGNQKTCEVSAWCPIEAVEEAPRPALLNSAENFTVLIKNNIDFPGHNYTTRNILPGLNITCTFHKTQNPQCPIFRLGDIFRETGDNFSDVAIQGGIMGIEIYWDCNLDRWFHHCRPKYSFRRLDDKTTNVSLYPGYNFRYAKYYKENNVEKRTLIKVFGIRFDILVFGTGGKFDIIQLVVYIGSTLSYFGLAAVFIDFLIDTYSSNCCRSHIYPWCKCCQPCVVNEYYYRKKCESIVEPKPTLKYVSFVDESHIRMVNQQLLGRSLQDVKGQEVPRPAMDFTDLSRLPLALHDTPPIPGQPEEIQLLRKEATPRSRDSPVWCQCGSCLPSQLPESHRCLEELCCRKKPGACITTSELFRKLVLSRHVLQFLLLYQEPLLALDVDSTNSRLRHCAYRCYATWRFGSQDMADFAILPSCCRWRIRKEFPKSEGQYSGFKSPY
Experiment: P2X7 calcium mobilization assay, high throughput, antagonist activity (Example 4A)
Assay type: cell-based
Outline: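 Dye-loaded cells (100,000/well, seeded previous day) are pre-exposed to compound for an hour at room temperature. Fluorescence maxima are baseline-corrected against no-agonist wells and compared with the averaged agonist-well maximum.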

| IC50 (50% decrease in the fluorescence response of cells exposed to 80 μM of 2′(3′)-O-(4-benzoyl-benzoyl)adenosine 5′-triphosphate, determined as in Example 4A, read-out: IC50) | SMILES | IC50 |
| --- | --- | --- |
| < 2000 nM | O=C(NCC12CC3CC(CC(C3)C1)C2)c1cccc2nc(C3(C(=O)O)CCCC3)cn12 [Compound 850, 1-{5-[(adamantan-1-ylmethyl)carbamoyl]imidazo [1,2-a]pyridin-2-yl} cyclopentane-carboxylic acid] |  |
|  | O=C(NCC12CC3CC(CC(C3)C1)C2)c1cccc2nc(CO)cn12 [Compound 3, N-(adamantan-1-ylmethyl)-2-(hydroxymethyl)imi-dazo[1,2-a]pyridine-5-carboxamide] | < 2000 nM |
